Test results: ChEMBL document CHEMBL1133121, “4-(1,3-Dimethoxyprop-2-ylamino)-2,7-dimethyl-8-(2, 4-dichlorophenyl)pyrazolo[1,5-a]-1,3,5-triazine: a potent, orally bioavailable CRF(1) receptor antagonist” (J Med Chem, 2000)
“And” between values parts separate entries of the source, which are not always exact repeats. Equal entries are not always repeated.

How the values were obtained:
[1] = target: T1, Corticotropin-releasing factor receptor 1 (Homo sapiens, UniProt P34998); assay: Displacement of [125I]-tyrosine-ovine-CRF from human Corticotropin releasing factor receptor 1
T1 sequence (P34998 whole entry): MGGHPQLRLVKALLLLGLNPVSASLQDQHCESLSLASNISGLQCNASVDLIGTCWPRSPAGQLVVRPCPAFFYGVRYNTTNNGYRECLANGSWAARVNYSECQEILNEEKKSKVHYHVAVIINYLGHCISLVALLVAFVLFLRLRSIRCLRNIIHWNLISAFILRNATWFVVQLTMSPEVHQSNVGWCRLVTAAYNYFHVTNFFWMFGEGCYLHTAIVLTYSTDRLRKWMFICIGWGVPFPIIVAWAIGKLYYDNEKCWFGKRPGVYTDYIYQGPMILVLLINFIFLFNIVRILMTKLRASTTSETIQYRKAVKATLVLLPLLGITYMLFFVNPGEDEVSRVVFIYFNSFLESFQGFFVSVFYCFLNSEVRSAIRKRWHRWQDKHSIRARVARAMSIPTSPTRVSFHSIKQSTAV

[2] = organism: Rattus norvegicus; assay: %binding inhibition in rat ex vivo assay after three hours; format: functional; set-up: concentration or dose not given beside the values
[3] = organism: Rattus norvegicus; assay: %binding inhibition in rat ex vivo assay after one hour; format: functional; set-up: concentration or dose not given beside the values
[4] = organism: Rattus norvegicus; assay: % binding inhibition in rat ex vivo assay after one hour; format: functional
[5] = organism: Rattus norvegicus; assay: % binding inhibition in rat ex vivo assay after three hours; format: functional
[6] = system: Canis familiaris; assay: AUC(nM.h) value was determined in dogs after intravenous dose of 1 mg/kg; format: ADME, organism-based, Canis lupus familiaris, Plasma; set-up: dose 1 mg/kg, route intravenous; conditions: dog, in vivo
[7] = %bioavail value was determined in rats after po dose of 5 mg/kg; format: ADME, organism-based; set-up: dose 5 mg/kg, route oral; conditions: rat, in vivo, read-out: Bioavailabiility
[8] = % bioavailability value was determined in dogs after po dose of 1 mg/kg; format: ADME, organism-based, Canis lupus familiaris; conditions: dog, in vivo, read-out: Bioavailabiility
[9] = Vss(L/kg)value was determined in dogs after intravenous dose of 1 mg/kg; format: ADME, organism-based, Canis lupus familiaris; set-up: dose 1 mg/kg, route intravenous; conditions: dog, in vivo, read-out: Vss
[10] = system: Rattus norvegicus; assay: (§1) Tested for situational anxiety in rats by measuring the latency exit from a chamber after po administration; format: functional
[11] = system: Rattus norvegicus; assay: CL(L/h/kg) value was determined in rats after intravenous dose of 5 mg/kg; format: ADME, organism-based; set-up: dose 5 mg/kg, route intravenous; conditions: in vivo
[12] = system: Rattus norvegicus; assay: AUCT(nM.h) value was determined in rats after po dose of 5 mg/kg; format: ADME, organism-based, Plasma; set-up: dose 5 mg/kg, route oral; conditions: in vivo
[13] = CL (L/h/kg) value was determined in dogs after intravenous dose of 1 mg/kg; format: ADME, organism-based, Canis lupus familiaris; set-up: dose 1 mg/kg, route intravenous; conditions: dog, in vivo, read-out: Vss (converted)
[14] = C5min (nM) value was determined in dogs after intravenous dose of 1 mg/kg; format: ADME, organism-based, Canis lupus familiaris; set-up: dose 1 mg/kg, route intravenous; conditions: dog, in vivo, read-out: C5 min
[15] = Tmax(h)value was determined in dogs after po dose of 1 mg/kg; format: ADME, organism-based, Canis lupus familiaris; set-up: dose 1 mg/kg, route oral; conditions: dog, in vivo
[16] = system: Rattus norvegicus; assay: AUC(nM.h) value was determined in rats after po dose of 5 mg/kg; format: ADME, organism-based, Plasma; set-up: dose 5 mg/kg, route oral; conditions: in vivo
[17] = system: Canis familiaris; assay: AUCT(nM.h) value was determined in dogs after po dose of 1 mg/kg; format: ADME, organism-based, Canis lupus familiaris, Plasma; set-up: dose 1 mg/kg, route oral; conditions: dog, in vivo
[18] = system: Rattus norvegicus; assay: as §1; format: functional; remark: listed apart in the source
[19] = system: Canis familiaris; assay: AUC(nM.h) value was determined in dogs after po dose of 1 mg/kg; format: ADME, organism-based, Canis lupus familiaris, Plasma; set-up: dose 1 mg/kg, route oral; conditions: dog, in vivo
[20] = Tmax(h)value was determined in rats after po dose of 5 mg/kg; format: ADME, organism-based; set-up: dose 5 mg/kg, route oral; conditions: rat, in vivo
[21] = Vss(L/kg) value was determined in rats after intravenous dose of 5 mg/kg; format: ADME, organism-based; set-up: dose 5 mg/kg, route intravenous; conditions: rat, in vivo, read-out: Vss
[22] = Cmax(nM)value was determined in rats after po dose of 5 mg/kg; format: ADME, organism-based; set-up: dose 5 mg/kg, route oral; conditions: rat, in vivo
[23] = system: Canis familiaris; assay: AUCT(nM.h) value was determined in dogs after intravenous dose of 1 mg/kg; format: ADME, organism-based, Canis lupus familiaris, Plasma; set-up: dose 1 mg/kg, route intravenous; conditions: dog, in vivo
[24] = t1/2 (h) value was determined in rats after po dose of 5 mg/kg; format: ADME, organism-based; set-up: dose 5 mg/kg, route oral; conditions: rat, in vivo
[25] = t1/2 (h) value was determined in dogs after po dose of 1 mg/kg; format: ADME, organism-based, Canis lupus familiaris; set-up: dose 1 mg/kg, route oral; conditions: dog, in vivo
[26] = t1/2 (h) value of was determined in rats after intravenous dose of 5 mg/kg; format: ADME, organism-based; set-up: dose 5 mg/kg, route intravenous; conditions: rat, in vivo
[27] = t1/2 (h) value was determined in dogs after intravenous dose of 1 mg/kg; format: ADME, organism-based, Canis lupus familiaris; set-up: dose 1 mg/kg, route intravenous; conditions: dog, in vivo
[28] = C5min (nM) value was determined in rats after intravenous dose of 5 mg/kg; format: ADME, organism-based; set-up: dose 5 mg/kg, route intravenous; conditions: rat, in vivo, read-out: C5 min
[29] = system: Rattus norvegicus; assay: as §1; format: functional; remark: listed apart in the source
[30] = system: Rattus norvegicus; assay: as §1; format: functional; remark: listed apart in the source
[31] = system: Rattus norvegicus; assay: Tested for situational anxiety in rats by measuring the latency exit from a chamber after po comparison with the activity values; format: functional

## Cc1nc(N(C)c2ccccc2)n2nc(C)c(-c3ccc(Cl)cc3Cl)c2n1
[1]
  Ki: 44.5 nM

## CCCC(CCC)Nc1nc(C)nc2c(-c3ccc(Cl)cc3Cl)c(C)nn12
[2]
  Binding inhibition: 74.8%
[1]
  Ki: 1.6 nM
[3]
  Binding inhibition: 63.9%

## CCCCN(CC)c1nc(C)nc2c(-c3ccc(Cl)cc3Cl)c(C)nn12
[4]
  Binding inhibition: 73.2%
[1]
  Ki: 0.4 nM
[5]
  Binding inhibition: 82.9%

## CCC(CC)Nc1nc(C)nc2c(-c3ccc(Cl)cc3Cl)c(C)nn12
[2]
  Binding inhibition: 71.8%
[1]
  Ki: 1.1 nM
[3]
  Binding inhibition: 65.9%

## CCCCN(CC)c1nc(C)nc2c1c(C)cn2-c1c(C)cc(C)cc1C.Cl
[2]
  Binding inhibition: <10%
[3]
  Binding inhibition: <10%

## COCC(COC)Nc1nc(C)nc2c(-c3ccc(Cl)cc3Cl)c(C)nn12
[6]
  AUC: 2.69 µM·h
[7]
  bioavailability: 36.7%
[8]
  bioavailability: 49.7%
[9]
  Vd: 27.1 L/kg
[10]
  Latency to exit: 680
[2]
  Binding inhibition: 81.3%
[11]
  CL: 2 kg⁻¹ h⁻¹
[12]
  AUC T: 1.86 µM·h
[13]
  clearance: 15.8 mL/min/kg
[14]
  concentration at 5 min: 1370 nM
[15]
  Tmax: 52.8 min
[16]
  AUC: 2.26 µM·h
[17]
  AUC T: 0.469 µM·h
[18]
  Latency to exit: <482
[19]
  AUC: 555 Nm.H
[20]
  Tmax: 26.4 min
[21]
  Vd: 21.5 L/kg
[22]
  Cmax: 317 nM
[23]
  AUC T: 2.27 µM·h
[24]
  half-life: 990 min
[25]
  half-life: 2000 min
[1]
  Ki: 1.7 nM
[26]
  half-life: 738 min
[27]
  half-life: 2070 min
[28]
  concentration at 5 min: 2880 nM
[29]
  Latency to exit: <426 and <286
[30]
  Latency to exit: <408
[3]
  Binding inhibition: 78.2%

## CCCCC(CC)Nc1nc(C)nc2c(-c3ccc(Cl)cc3Cl)c(C)nn12 (centres undefined)
[1]
  Ki: 1.6 nM

## CCCN(CC1CC1)c1nc(C)nc2c(-c3ccc(Cl)cc3Cl)c(C)nn12
[2]
  Binding inhibition: 95.4%
[1]
  Ki: 0.7 nM
[3]
  Binding inhibition: 73.3%

## CCCC(CC)Nc1nc(C)nc2c(-c3ccc(Cl)cc3Cl)c(C)nn12 (centres undefined)
[2]
  Binding inhibition: 67%
[1]
  Ki: 1.2 nM
[3]
  Binding inhibition: 46.6%

## CCOCC(COCC)Nc1nc(C)nc2c(-c3ccc(Cl)cc3Cl)c(C)nn12
[1]
  Ki: 6.2 nM

## CNC1=Nc2ccc(Cl)cc2C(c2ccccc2)=[N+]([O-])C1 [CHLORDIAZEPOXIDE]
[31]
  Latency to exit: <216

## CCCN(CCC)c1nc(C)nc2c(-c3ccc(Cl)cc3Cl)c(C)nn12
[1]
  Ki: 0.6 nM

## COCCN(CCOC)c1nc(C)nc2c(-c3ccc(Cl)cc3Cl)c(C)nn12
[2]
  Binding inhibition: 92.9%
[1]
  Ki: 1.8 nM
[3]
  Binding inhibition: 85.4%

## CCC(COC)Nc1nc(C)nc2c(-c3ccc(Cl)cc3Cl)c(C)nn12 (centres undefined)
[1]
  Ki: 1.9 nM
